Experimental data reported in article PMC9822434, “Estradiol-Based Salicylaldehyde (Thio)Semicarbazones and Their Copper Complexes with Anticancer, Antibacterial and Antioxidant Activities” (Molecules, 2022).
Converted amounts (≈) assume the structure as drawn.

Tests used:
S. aureus ATCC 25928 = assay: MIC determination; format: cell-based, Staphylococcus aureus; conditions: Gram-positive S. aureus ATCC 25928, Mueller Hinton Broth
Procedure, shortened: (§1)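 Broth microdilution in Mueller Hinton Broth, two-fold serial dilutions starting at 100 µM compound (from 10 mM stocks in 90% DMSO). Each well inoculated with a 10^−4 dilution of overnight culture. MIC read per prior lab method.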

physchem = format: physicochemical
Experimental: An Orion 710A pH-meter equipped with a Metrohm combined electrode (type 6.0234.100) and a Metrohm 665 Dosimat burette were used for the UV–vis titrations at 25.0 ± 0.1 °C. Ionic strength of 0.10 M (KCl) was used to keep the activity coefficients constant. The titrations were performed with carbonate-free KOH solution of known concentration (0.10 M) with 30% (v/v) DMSO content. […] The average water ionization constant (pKw) is 14.54 ± 0.05 in the 30% (v/v) DMSO/H2O mixture. Argon was always passed over the solutions during the titrations. An Agilent Cary 8454 diode array spectrophotometer was used to record the UV–vis spectra at an interval of 200–800 nm. The path length was 2 cm. Spectrophotometric titrations were performed using a 0.1 M KOH titrant solution with 30% (v/v) DMSO on samples with 30% (v/v) DMSO containing HCl, KCl and the ligand at 20 μM concentration in the pH range 2.0–12.5 in the absence or in the presence of 1 or 0.5 equiv. Cu(II) ions. Proton dissociation constants (Ka) of the TSC ligands, the overall stability constants (β) of the Cu(II) complexes and the UV–vis spectra of the individual species were calculated by the computer program PSEQUAD [41] as was done in our previous works.

[1] = format: physicochemical
Procedure, shortened: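 UV–vis pH-metric titrations at 25.0 ± 0.1 °C, I = 0.10 M KCl, 30% (v/v) DMSO/H2O under argon; ligand 20 μM, pH 2.0–12.5, alone or with 1 or 0.5 equiv. Cu(II). Spectra 200–800 nm, 2 cm path; pKa, overall stability constants (β) and species spectra fitted with PSEQUAD.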

[2] = direct redox reaction of the Cu(II) complexes with GSH (UV–vis, anaerobic); format: physicochemical; conditions: Cu(II) complex (25 µM) of the named ligand with GSH (1.25 mM), pH 7.4, anaerobic, 30% (v/v) DMSO/H2O, 25.0 °C
Procedure, shortened: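 Complexes mixed with GSH or ascorbic acid at 25.0 ± 0.1 °C, pH 7.40 (10 mM HEPES, 0.1 M KCl) in a sealed tandem cuvette, both compartments argon-deoxygenated 10 min before mixing. UV–vis absorbance followed at complex λmax until stable; single-exponential fit, kobs taken as slope of ln(A/A0) versus t.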

E. faecalis ATCC 29212 = assay: MIC determination; format: cell-based, Enterococcus faecalis; conditions: Enterococcus faecalis, ATCC29212; Gram-positive E. faecalis ATCC 29212; Mueller Hinton Broth
Procedure, shortened: as §1

[3] = system: A549, MCF-7, MCF-7 KCR and DU-145 cells; assay: γH2AX immunostaining (DNA double-strand breaks); format: cell-based, human; conditions: 20 µM, 3 h
Experimental: In order to determine the degree of DNA damage induced by the treatments, DNA double-strand breaks were visualized by γH2AX immunostaining. For this, 1 × 10^5 cells/well were seeded onto coverslips in 24-well plates. […] Then, cells were fixed with 4% formaldehyde (Molar Chemicals, Halásztelek, Hungary), permeabilized with 0.3% Triton-X-100 (Calbiochem, Merck Millipore, Darmstadt, Germany) and were blocked using 5% bovine serum albumin (BSA) (Sigma-Aldrich, St. Louis, MO, USA). Then, the samples were incubated with anti-γH2AX antibody (Thermo Fisher Scientific, Waltham, MA, USA) in 1:300 dilution followed by Alexa 488 fluorophore-conjugated goat anti-mouse secondary antibody (Abcam, Cambridge, UK) in 1:600 dilution. The fluorescence intensity of the stained samples was detected by an Olympus FV10i confocal microscope.

DU-145 = assay: MTT cytotoxicity assay; format: cell-based, human; conditions: Homo sapiens; DU-145, MTT, 24 h incubation time
Procedure, shortened: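 Cells were exposed 24 h to 0–20 µM (2.5, 5, 10, 15, 20 µM) Cu(II) complexes, ligands or metal salts (equimolar ligand–CuCl2), then 0.5 mg/mL MTT for 1 h at 37 °C. Formazan was dissolved in DMSO and read at 570 nm; viability is relative to untreated control as 100%.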

[4] = Cu(II) complex of the named ligand, 30% (v/v) DMSO/H2O, T = 25.0 °C, I = 0.1 M (KCl)

C[C@]12CC[C@@H]3c4cc(C=NNC(N)=S)c(O)cc4CC[C@H]3[C@@H]1CCC2O (some centres unmarked) [estradiol-TSC, 2-((3,17 Dihydroxy-estra-1,3,5(10)-triene-2-yl)methylene)Hydrazine-1-carbothioamide] showed an MIC (S. aureus ATCC 25928) of 25 µM (≈ 9.34 µg/mL), an MIC (S. aureus ATCC 25928; Staphylococcus aureus, ATCC25928) of 25 µM (≈ 9.34 µg/mL) and a pKa (physchem) of 9.23 ± 0.03. The “pKa [CuL]+” value [1] was 3.95, the “logβ [CuLH−1]” value [1, 4] was 9.84 ± 0.03 and the “logβ [CuL]+” value [1, 4] was 13.79 ± 0.03. The pCu5.0 ([1]; calculated at pH 5.0, cCu(II) = 20 µM, cligand = 20 µM) was 7.8, the pCu6.0 ([1]; estimated at pH 6.0, cCu(II) = 20 µM, cligand = 20 µM) was 9.3 and the pCu7.4 ([1]; estimated at pH 7.4, cCu(II) = 20 µM, cligand = 20 µM) was 12.1. The melting point was 229 to 231 °C, the kobs [2] was 0.07 ± 0.03 min⁻¹ and the MIC (E. faecalis ATCC 29212) was > 100 µM. For the same compound, the “DNA double-strand breaks (γH2AX) vs untreated control cells” value [3] was “None of these treatments caused a higher degree of DNA damage” and the IC50 (DU-145) was > 20 µM.
